From publication PMC9138102, “The Role of ZIP9 and Androgen Receptor in the Establishment of Tight Junctions between Adult Rat Sertoli Cells” (Biology, 2022)
Where two headings read alike, the source gives them in different places.

Key:
Erk1/2 [1] = test: Erk1/2 phosphorylation in PASC1 cells, Western blot; assay type: cell-based, rat
Method: A total of 3 × 10^4 PASC1 cells/dish were grown in 5 cm culture dishes as described above. Cells were then incubated for 24 h with 1% FCS before testosterone or P1 were added to the medium to reach the desired final concentration. The ethanol vehicle for testosterone was added to the peptide-treated cells and untreated controls at the same concentration as in cell cultures treated with testosterone. After 24 h, the medium was aspired and the cells were washed twice in ice-cold DPBS. Cells were then incubated with 400 µL lysis buffer (Cell Signaling Technologies, Frankfurt, Germany) containing 1 µM PMSF, 1× protease inhibitor cocktail (Roche, Mannheim, Germany), and 2 µg/mL pepstatin that was added immediately before use. All further steps were carried out on ice. After 5 min of incubation, cells were detached using a cell scraper. The suspensions were then transferred into 1.5 mL vials and sonicated 5 times for 1 s each with intervals of 1 s. After centrifugation of the lysates at 4 °C and 13,000× g for 10 min, the protein concentration in the supernatants was determined at 540 nm using a bicinchoninic acid protein assay reagent kit (Pierce, Southfield, MI, USA) and a Labsystems (Helsinki, Finland) plate reader. The BSA protein standard contained lysis buffer at the same concentration as in the samples from the cell lysates. Supernatants were then aliquoted and maintained at −20 °C until further use.
A total of 10 µg protein from PASC1 cell lysates was run on SDS-PAGE gels containing 10% acrylamide and 0.3% N,N′-methylene-bis-acrylamide. Biotinylated proteins (Cell Signaling Technologies) were run in parallel as molecular weight markers. After electrophoresis, proteins were semi-dry electro-blotted onto PVDF membranes (Merck Chemicals GmbH, Schwalbach, Germany) for 30 min at […]. The membranes were then incubated for 1 h at room temperature in 5% (w/w) non-fat dry milk. Primary antibodies against phospho-Erk1/2, total-Erk1/2, or beta-actin were diluted according to the recommendations of the manufacturers and then incubated with the PVDF membranes overnight at 4 °C (see Supplementary Table S1 for all antibodies with dilutions and manufacturers). After washing in DPBS, the membranes were incubated under continuous mild agitation on an orbital shaker for 60 min at room temperature with a horseradish peroxidase-conjugated secondary antibody. An anti-biotin, HRP-conjugated antibody at a dilution of 1:2000 was also included in the mixture containing the secondary antibody in order to detect the biotinylated molecular weight marker. Antibody-labeled protein bands were visualized by enhanced chemiluminescence.
Figure 5 Western blot analysis of phospho-Erk1/2. PASC1 cells were stimulated for 24 h with various concentrations of testosterone or IAPG. (A) Phospho-Erk1/2 detection after stimulation with testosterone and (B) after stimulation with IAPG. […] For each diagram: n = 3; means ± SEM. Original Western blots are shown in Supplementary Figure S1.

ZO-1 = ZO-1 expression in PASC1 cells, immunofluorescence; assay type: cell-based, rat; conditions: 10 nM testosterone or 10 µM IAPG, 24 h, n = 3 × 25
Method: PASC1 cells were plated at a density of 3.0 × 10^4 on 24-well plates (1 mL/well) and incubated 48 h at 37 °C and 5% CO2 until a confluence of roughly 80% was reached. […] Cells were then washed with DPBS three times for 5 min, and then incubated in blocking solution (PBS with 3% BSA and 0.3% Triton X-100, both from Sigma-Aldrich) for 1 h at room temperature. The blocking solution was replaced by fresh blocking solution containing the primary antibodies for detection of either AR, p-Erk1/2, p-CREB/p-ATF-1, claudin-1 (Cldn-1), or zonula occludens-1 (ZO-1) (Supplementary Table S1) and incubated overnight at 4 °C. Cells were washed 3 times with DPBS for 3 min each at RT on an orbital shaker, freshly made blocking solution with the appropriate Alexafluor 488-conjugated donkey anti-rabbit secondary antibody was added for 1 h at room temperature on an orbital shaker. After washing 3 times with DPBS, images were obtained using an inverse Olympus IX81 microscope equipped with a fluorescence system. […] The data obtained were analyzed by GraphPad Prism5 (GraphPad Software, Inc., La Jolla, CA, USA).
(§1) For silencing ZIP9 or AR expression, PASC1 cells were treated with commercially available siRNA directed against the expression of ZIP9 or the AR by following the manufacturer’s protocol (Silencer ® Select, siRNA Invitrogen, Darmstadt, Germany). The following oligonucleotides were used: 5′ […]tt3′ and 5′ […]ta 3′ (ZIP9-siRNA for ZIP9 silencing) and 5′[…]tt3′ plus 5′ […]ag 3′ (AR-siRNA for AR silencing). Negative control siRNA (nc-siRNA) was provided in the siRNA kit from the same manufacturer. After incubation of PASC1 for 48 h with ZIP9-siRNA, AR-siRNA, or nc-siRNA, preparation of samples for qRT-PCR, TER measurement, or immunofluorescence experiments were carried out as described above.

Erk1/2 [2] = system: Erk1/2; design: method as in PMID 35053053; conditions: Sertoli cell line 93RS2, cited from earlier work
Source text: Activation of Erk1/2 by phosphorylation occurs in the so-called non-classical signaling pathway of testosterone.

Erk1/2 [3] = test: phospho-Erk1/2 immunofluorescence in PASC1 cells after AR or ZIP9 silencing; assay type: cell-based, rat; conditions: 10 nM testosterone or 10 µM IAPG, 24 h
Method: PASC1 cells were plated at a density of 3.0 × 10^4 on 24-well plates (1 mL/well) and incubated 48 h at 37 °C and 5% CO2 until a confluence of roughly 80% was reached. Cells were rinsed with DPBS and fixed with 100% ice-cold methanol (Roth, Karlsruhe, Germany) on ice for 10 min directly or after stimulation with vehicle, 10 nM testosterone, or 1 µM P1 for 24 h. Cells were then washed with DPBS three times for 5 min, and then incubated in blocking solution (PBS with 3% BSA and 0.3% Triton X-100, both from Sigma-Aldrich) for 1 h at room temperature. The blocking solution was replaced by fresh blocking solution containing the primary antibodies for detection of either AR, p-Erk1/2, p-CREB/p-ATF-1, claudin-1 (Cldn-1), or zonula occludens-1 (ZO-1) (Supplementary Table S1) and incubated overnight at 4 °C. Cells were washed 3 times with DPBS for 3 min each at RT on an orbital shaker, freshly made blocking solution with the appropriate Alexafluor 488-conjugated donkey anti-rabbit secondary antibody was added for 1 h at room temperature on an orbital shaker. After washing 3 times with DPBS, images were obtained using an inverse Olympus IX81 microscope equipped with a fluorescence system. […] The data obtained were analyzed by GraphPad Prism5 (GraphPad Software, Inc., La Jolla, CA, USA).
as §1

AR = AR nuclear translocation in PASC1 cells (immunofluorescence); assay type: cell-based, rat; conditions: 2 h
Method: PASC1 cells were plated at a density of 3.0 × 10^4 on 24-well plates (1 mL/well) and incubated 48 h at 37 °C and 5% CO2 until a confluence of roughly 80% was reached. Cells were rinsed with DPBS and fixed with 100% ice-cold methanol (Roth, Karlsruhe, Germany) on ice for 10 min directly or after stimulation with vehicle, 10 nM testosterone, or 1 µM P1 for 24 h. Cells were then washed with DPBS three times for 5 min, and then incubated in blocking solution (PBS with 3% BSA and 0.3% Triton X-100, both from Sigma-Aldrich) for 1 h at room temperature. The blocking solution was replaced by fresh blocking solution containing the primary antibodies for detection of either AR, p-Erk1/2, p-CREB/p-ATF-1, claudin-1 (Cldn-1), or zonula occludens-1 (ZO-1) (Supplementary Table S1) and incubated overnight at 4 °C. […] After washing 3 times with DPBS, images were obtained using an inverse Olympus IX81 microscope equipped with a fluorescence system. A total of 30 cells from 3 independent experiments (30 × 3) localized closest to the diagonals of the square optical field were selected and the manually surrounded green fluorescence was quantified by ImageJ (available at http://rsbweb.nih.gov/ij/, last accessed 28 February 2022) following the protocol of the software provider.

Compound | Total expression of Erk1/2 or beta-actin (Erk1/2 [1]) | EC50 (Erk1/2 [1]; Rattus norvegicus, 24 h per legend, within 30 min per text, 10^-10 to 10^-7 M, n = 3, means ± SEM) [pM] | Concentration needed for maximum stimulation of Erk1/2 phosphorylation (Erk1/2 [1]; testosterone) [µM] | Stimulated ZO-1 fluorescence, nc-siRNA versus AR-siRNA (ZO-1) | ZO-1 expression (fluorescence signal) (ZO-1; ZIP9-siRNA) | ZO-1 expression (fluorescence signal) (ZO-1; nc-siRNA) | Concentration for maximum Erk1/2 phosphorylation (Erk1/2 [2]; testosterone) [µM] | Stimulatory effect on Erk1/2 phosphorylation, nc-siRNA versus AR-siRNA (Erk1/2 [3]) | Erk1/2 phosphorylation (green fluorescence) (Erk1/2 [3]; AR-siRNA, ** p ≤ 0.01) | Erk1/2 phosphorylation (green fluorescence) (Erk1/2 [3]; ZIP9-siRNA, ns) | Erk1/2 phosphorylation (green fluorescence) (Erk1/2 [3]; nc-siRNA, ** p ≤ 0.01) | AR localization / translocation into the nucleus (AR; testosterone 10 nM) | Concentration needed for maximum stimulation of Erk1/2 phosphorylation (Erk1/2 [1]; IAPG) [µM] | Concentration for maximum Erk1/2 phosphorylation (Erk1/2 [2]; IAPG) [µM] | AR localization / translocation into the nucleus (AR; IAPG 10 µM)
C[C@]12CC[C@H]3[C@@H](CCC4=CC(=O)CC[C@@]43C)[C@@H]1CC[C@@H]2O [testosterone] | did not affect total expression of Erk1/2 or beta-actin | 350 | 0.01 | not significantly different | The ZO-1 fluorescence was unchanged by the ligands | the ZO-1-corresponding signal was significantly intensified | 0.01 | not significantly different from each other | responded with augmented phosphorylation of Erk1/2 | entirely prevented stimulation of Erk1/2 phosphorylation | low (Figure 6A) relative to the signal obtained in cells exposed to testosterone | all green fluorescence was found within the nuclei | – | – | –
IAPG | did not affect total expression of Erk1/2 or beta-actin | – | – | not significantly different | The ZO-1 fluorescence was unchanged by the ligands | the ZO-1-corresponding signal was significantly intensified | – | not significantly different from each other | responded with augmented phosphorylation of Erk1/2 | entirely prevented stimulation of Erk1/2 phosphorylation | low (Figure 6A) relative to the signal obtained in cells exposed to testosterone (Figure 6B) or IAPG | – | 10 | 10 | A translocation of the AR from the cytosol into the nucleus did not occur
